# From patent publication US20220373437A1, “SYSTEM FOR EVALUATING CHEMO-PREVENTIVE POTENTIAL OF PHC AND ITS PREPARED CHITOSAN NANOPARTICLES” (priority 2022, published 2022)
# Legend:
# Format in all cases: in vivo, Wistar rats
# [1] = system: DEN induced hepatocellular carcinoma; experiment: Lipid peroxidation (MDA) in liver tissue homogenates of DEN + CCl4 induced HCC rats; conditions: vs HCC group
# Description: (§1) In an embodiment, an injection 106 is used for inducing Hepatocellular Carcinoma (HCC), wherein for the induction of HCC, rats administered single intraperitoneal injection of DEN (200 mg/kg body weight) followed by weekly subcutaneous injections of carbon tetrachloride (3 ml/kg body weight) for 6 weeks, wherein the rats are divided into eight groups, from which group 1 is served as normal control, and group 2-8 are given single dose of DEN and repeated dose of CCl4 till the completion of the experimental duration of 16 weeks, wherein freshly prepared solution of DEN in normal saline is used for the induction of HCC in rats by administering 200 mg/kg, i.p., PHC (2:1:1) is dispersed in normal saline suspension to administer at doses of 900 mg/kg, p.o and 1935 mg/kg p.o. Soranib (Sorafenib 200 mg) tablets are powdered and dissolve in normal saline solution and the freshly prepared solution is used as standard drug.
# In one embodiment, a tissue homogenizer 120 is coupled to the treatment unit 110 for preparing ten percentage homogenates of liver tissue. […]
# FIG. 7 illustrates effect on lipid peroxidation (LPO) in control and experimental groups in accordance with an embodiment of the present disclosure. All values are expressed as mean±Standard deviation (SD) (n=6) except n=5 in Plant ‘c’ group. […]
# Malondialdehyde (MDA), an end product of LPO is assessed in the tumor tissues homogenates. […]
# [2] = system: DEN induced hepatocellular carcinoma; experiment: Macroscopic hepatic nodule incidence in DEN + CCl4 induced HCC rats; conditions: DEN 200 mg/kg i.p. + weekly CCl4 s.c., 16 weeks, HCC control group 6-7 nodules, normal control none
# Description: as §1
# In another embodiment, all the rats are allowed to consume commercial pellet diet during the course of the study, wherein eight groups of rat are differentiated into six groups consisting of eight rats and two groups consisting of twelve rats.
# In one embodiment, a refrigerator 124 is coupled to the treatment unit 110 for storing the tissues at −20° C. and observing the presence of nodules using the UV spectrophotometer 114. […]
# [3] = system: DEN induced hepatocellular carcinoma; experiment: Total bilirubin, total protein, albumin, globulin and A/G ratio in DEN + CCl4 induced HCC rats; conditions: ANOVA followed by Dunnett's t-test vs HCC group
# Description: as §1
# (§2) In an embodiment, a collection unit 108 is used for collecting serum and tissue samples after anesthetizing overnight fasted rats using intraperitoneal administration of thiopentone sodium at a dose of 40 mg/kg, wherein the blood sample is collected by retro-orbital plexus followed by cardiac puncture.
# In another embodiment, the treatment unit 110 comprises a centrifuge 116 for centrifugating the collected sample of blood at 3000 rpm for 10 minutes to separate the serum, which is kept at −20° C. until further analysis.
# In another embodiment, the live markers are selected from a group comprising Alanine Aminotransaminase (ALT)/Serum Glutamate Pyruvate Transaminase (SGPT), Aspartate Aminotransaminase (AST)/Serum Glutamate Oxaloacetate Transaminase (SGOT), Alkaline Phosphatase (ALP), Lactate dehydrogenase (LDH), total protein, albumin, globulin and total bilirubin.
# FIG. 6 illustrates effect on total bilirubin, total protein, albumin and globulin in control and experimental groups in accordance with an embodiment of the present disclosure. All values are expressed as mean±Standard deviation (SD) (n=6) except n=5 in Plant ‘c’ group. Statistical analysis is done using One way Analysis of Variance (ANOVA) followed by Dunnett's t-test using GraphPad Prism Version 8.0.1. Where, HCC is compared with NC group while the treatment groups (Plant ‘a’, Plant ‘b’, Plant ‘c’, PHC (2:1:1), CNP-EL and STD) are compared with HCC group. ^#P<0.0001 is very highly significant when compared with NC, ^aP<0.0001 is very highly significant, ^bP<0.001 is highly significant, ^cP<0.01 is very significant, ^dP<0.05 is significant and ns=not significant when compared with HCC group. Where NC is normal control group; HCC is hepatocellular carcinoma group; Plant ‘a’ group is Berberis aristata treated group; Plant ‘b’ group is Andrographis paniculata treated group; Plant ‘c’ group is Thevetia peruviana treated group; PHC (2:1:1) group is Polyherbal combination of 2:1:1 treated group; CNP-EL group is Chitosan nanoparticles of PHC (2:1:1) treated group and STD group is Standard Sorafenib treated group. Unit: Bilirubin: mg/dl, Total protein, Albumin and globulin: gm/dl.
# [4] = system: DEN induced hepatocellular carcinoma; experiment: Liver histopathology (H and E stained sections) in DEN + CCl4 induced HCC rats; conditions: 16 weeks
# Description: as §1, §2
# In one embodiment, a micropipette 122 is coupled to the treatment unit 110 for pouring formalin solution for histopathological examination. […]
compound,measurement,setting,value
"CNC(=O)c1cc(Oc2ccc(NC(=O)Nc3ccc(Cl)c(C(F)(F)F)c3)cc2)ccn1 [STD, Sorafenib]","levels of MDA (lipid peroxidation), change compared to HCC group",[1],very highly significant (^aP<0.0001) decreased
same,number of macroscopically visible hepatic nodules,[2],0-1
same,"A/G ratio, change compared to HCC group",[3],very highly significant (^aP<0.0001) increased
same,"level of albumin, change compared to HCC group",[3],very highly significant (^aP<0.0001) increased
same,"level of globulin, change compared to HCC group",[3],very highly significant (^aP<0.0001) increased
same,"level of total bilirubin, change compared to HCC group",[3],very highly significantly (^aP<0.0001) decreased
same,"level of total protein, change compared to HCC group",[3],very highly significant (^aP<0.0001) increased
same,histopathology of H and E stained section of liver (40×),[4],"hepatic tissue with cytoplasm, less necrosis of cell, altered hepatocytes and hepatocellular architecture"
